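Grown in 96-well plates, cells were treated for 48 hours with each compound at five concentrations. Insufficient inhibition: endpoint recorded as highest concentration tested. GI50 = concentration required for 50% inhibition of growth.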 The source made the active and inactive calls. No stated cut-off is given here; in the data, active = GI50 up to about 1.1 µM and inactive = higher.
How the values were obtained:
Assay in all cases: growth of human tumour cells (NCI), 48 h
[1] = tested on: 786-0
[2] = tested on: A498
[3] = tested on: A549
[4] = tested on: ACHN
[5] = tested on: BT-549
[6] = tested on: CAKI-1
[7] = tested on: CCRF-CEM
[8] = tested on: COLO 205
[9] = tested on: DU-145
[10] = tested on: EKVX
[11] = tested on: HCC 2998
[12] = tested on: HCT-116
[13] = tested on: HCT-15
[14] = tested on: HL-60
[15] = tested on: HOP-62
[16] = tested on: HOP-92
[17] = tested on: HT-29
[18] = tested on: Hs-578T
[19] = tested on: IGROV-1
[20] = tested on: K562
[21] = tested on: KM12
[22] = tested on: LOX IMVI
[23] = tested on: M14
[24] = tested on: MCF7
[25] = tested on: MDA-MB-231
[26] = tested on: MDA-MB-435
[27] = tested on: MDA-N
[28] = tested on: MOLT-4
[29] = tested on: Malme-3M
[30] = tested on: NCI-H23
[31] = tested on: NCI-H460
[32] = tested on: NCI-H522
[33] = tested on: NCI/ADR-RES
[34] = tested on: OVCAR-3
[35] = tested on: OVCAR-4
[36] = tested on: OVCAR-5
[37] = tested on: OVCAR-8
[38] = tested on: PC-3
[39] = tested on: RPMI-8226
[40] = tested on: RXF 393
[41] = tested on: SF-268
[42] = tested on: SF-295
[43] = tested on: SK-MEL-28
[44] = tested on: SK-MEL-2
[45] = tested on: SK-MEL-5
[46] = tested on: SK-OV-3
[47] = tested on: SN12C
[48] = tested on: SNB-19
[49] = tested on: SNB-75
[50] = tested on: SR
[51] = tested on: SW-620
[52] = tested on: T47D
[53] = tested on: TK-10
[54] = tested on: U-251
[55] = tested on: UACC-257
[56] = tested on: UACC-62
[57] = tested on: UO-31
[58] = tested on: NCI-H226
[59] = tested on: SF-539

## COc1ccc2c(=O)cc(-c3ccncc3)oc2c1OC
[1]
  GI50: 27.9 µM (inactive)
[2]
  GI50: 14.7 µM (inactive)
[3]
  GI50: 33.1 µM (inactive)
[4]
  GI50: 25.7 µM (inactive)
[5]
  GI50: 26 µM (inactive)
[6]
  GI50: 36.1 µM (inactive)
[7]
  GI50: 29.1 µM (inactive)
[8]
  GI50: 15 µM (inactive)
[9]
  GI50: 24.7 µM (inactive)
[10]
  GI50: 28.2 µM (inactive)
[11]
  GI50: 25.3 µM (inactive)
[12]
  GI50: 24.2 µM (inactive)
[13]
  GI50: 28.5 µM
[14]
  GI50: 19.5 µM (inactive)
[15]
  GI50: 30.8 µM (inactive)
[16]
  GI50: 17.7 µM (inactive)
[17]
  GI50: 28.6 µM (inactive)
[18]
  GI50: 15.7 µM (inactive)
[19]
  GI50: 20.8 µM (inactive)
[20]
  GI50: 38.3 µM (inactive)
[21]
  GI50: 26.4 µM (inactive)
[22]
  GI50: 21 µM (inactive)
[23]
  GI50: 19.8 µM (inactive)
[24]
  GI50: 35.7 µM (inactive)
[25]
  GI50: 31.8 µM (inactive)
[26]
  GI50: 31.6 µM (inactive)
[27]
  GI50: 29.2 µM (inactive)
[28]
  GI50: 7.57 µM (inactive)
[29]
  GI50: 30.4 µM (inactive)
[30]
  GI50: 24.6 µM (inactive)
[31]
  GI50: 20.7 µM (inactive)
[32]
  GI50: 24.6 µM (inactive)
[33]
  GI50: 34 µM (inactive)
[34]
  GI50: 17.5 µM (inactive)
[35]
  GI50: 46.1 µM (inactive)
[36]
  GI50: 24.6 µM (inactive)
[37]
  GI50: 24.9 µM (inactive)
[38]
  GI50: 23.8 µM (inactive)
[39]
  GI50: 32.2 µM (inactive)
[40]
  GI50: 24.9 µM (inactive)
[41]
  GI50: 21.8 µM (inactive)
[42]
  GI50: 20.9 µM (inactive)
[43]
  GI50: 26.5 µM (inactive)
[44]
  GI50: 25.3 µM (inactive)
[45]
  GI50: 17.5 µM (inactive)
[46]
  GI50: 41 µM (inactive)
[47]
  GI50: 29.6 µM (inactive)
[48]
  GI50: 31.4 µM (inactive)
[49]
  GI50: 18.2 µM (inactive)
[50]
  GI50: 6.67 µM (inactive)
[51]
  GI50: 31.6 µM (inactive)
[52]
  GI50: 48.8 µM (inactive)
[53]
  GI50: 28.1 µM (inactive)
[54]
  GI50: 30.1 µM (inactive)
[55]
  GI50: 33 µM (inactive)
[56]
  GI50: 14 µM (inactive)
[57]
  GI50: 19.7 µM (inactive)

## CC(C)=CCC/C(C)=C/CC/C(C)=C/CC(CO)N(C)CC/C=C(\C)CCC=C(C)C (stereo unspecified)
[1]
  GI50: 1.91 µM (inactive)
[2]
  GI50: 14.9 µM (inactive)
[3]
  GI50: 4.93 µM (inactive)
[4]
  GI50: 11.6 µM (inactive)
[5]
  GI50: 14.1 µM (inactive)
[6]
  GI50: 6.64 µM (inactive)
[7]
  GI50: 3.03 µM (inactive)
[8]
  GI50: 2.42 µM (inactive)
[9]
  GI50: 11.5 µM (inactive)
[10]
  GI50: 10.4 µM (inactive)
[11]
  GI50: 3.04 µM (inactive)
[12]
  GI50: 2.15 µM (inactive)
[13]
  GI50: 3.78 µM
[15]
  GI50: 4.32 µM (inactive)
[16]
  GI50: 2.7 µM (inactive)
[17]
  GI50: 3.5 µM (inactive)
[18]
  GI50: 5.31 µM (inactive)
[19]
  GI50: 3.1 µM (inactive)
[20]
  GI50: 1.6 µM (inactive)
[21]
  GI50: 3.94 µM (inactive)
[22]
  GI50: 2.92 µM (inactive)
[23]
  GI50: 1.79 µM (inactive)
[24]
  GI50: 2.11 µM (inactive)
[25]
  GI50: 9.86 µM (inactive)
[26]
  GI50: 3.93 µM (inactive)
[27]
  GI50: 3.43 µM (inactive)
[28]
  GI50: 2.39 µM (inactive)
[29]
  GI50: 2.99 µM (inactive)
[58]
  GI50: 13.7 µM (inactive)
[30]
  GI50: 7.96 µM (inactive)
[31]
  GI50: 3.48 µM (inactive)
[32]
  GI50: 2.09 µM (inactive)
[33]
  GI50: 4.62 µM (inactive)
[34]
  GI50: 14.2 µM (inactive)
[35]
  GI50: 8.97 µM (inactive)
[36]
  GI50: 7.13 µM (inactive)
[37]
  GI50: 7 µM (inactive)
[38]
  GI50: 7.96 µM (inactive)
[39]
  GI50: 3.09 µM (inactive)
[40]
  GI50: 4.82 µM (inactive)
[41]
  GI50: 13.3 µM (inactive)
[42]
  GI50: 7.1 µM (inactive)
[59]
  GI50: 3.06 µM (inactive)
[43]
  GI50: 5.87 µM (inactive)
[44]
  GI50: 14.3 µM (inactive)
[45]
  GI50: 8.39 µM (inactive)
[46]
  GI50: 14.9 µM (inactive)
[47]
  GI50: 4.54 µM (inactive)
[48]
  GI50: 8.91 µM (inactive)
[49]
  GI50: 12 µM (inactive)
[50]
  GI50: 2.17 µM (inactive)
[51]
  GI50: 3.62 µM (inactive)
[52]
  GI50: 3.64 µM (inactive)
[53]
  GI50: 9.53 µM (inactive)
[54]
  GI50: 3.56 µM (inactive)
[55]
  GI50: 5.2 µM (inactive)
[56]
  GI50: 16.1 µM (inactive)
[57]
  GI50: 4.65 µM (inactive)

## O=C(O)C(Cc1cccs1)C(=O)O
[1]
  GI50: > 100 µM (inactive)
[2]
  GI50: > 100 µM (inactive)
[3]
  GI50: > 100 µM (inactive)
[4]
  GI50: > 100 µM (inactive)
[5]
  GI50: > 100 µM (inactive)
[6]
  GI50: > 100 µM (inactive)
[7]
  GI50: > 100 µM (inactive)
[8]
  GI50: > 100 µM (inactive)
[9]
  GI50: > 100 µM (inactive)
[10]
  GI50: > 100 µM (inactive)
[11]
  GI50: > 100 µM (inactive)
[12]
  GI50: > 100 µM (inactive)
[13]
  GI50: > 100 µM
[14]
  GI50: > 100 µM (inactive)
[15]
  GI50: > 100 µM (inactive)
[16]
  GI50: > 100 µM (inactive)
[17]
  GI50: > 100 µM (inactive)
[18]
  GI50: > 100 µM (inactive)
[19]
  GI50: > 100 µM (inactive)
[20]
  GI50: > 100 µM (inactive)
[21]
  GI50: > 100 µM (inactive)
[22]
  GI50: > 100 µM (inactive)
[23]
  GI50: > 100 µM (inactive)
[24]
  GI50: > 100 µM (inactive)
[25]
  GI50: > 100 µM (inactive)
[26]
  GI50: > 100 µM (inactive)
[27]
  GI50: > 100 µM (inactive)
[29]
  GI50: > 100 µM (inactive)
[58]
  GI50: > 100 µM (inactive)
[30]
  GI50: > 100 µM (inactive)
[31]
  GI50: > 100 µM (inactive)
[32]
  GI50: > 100 µM (inactive)
[33]
  GI50: > 100 µM (inactive)
[34]
  GI50: > 100 µM (inactive)
[35]
  GI50: > 100 µM (inactive)
[36]
  GI50: > 100 µM (inactive)
[37]
  GI50: > 100 µM (inactive)
[38]
  GI50: > 100 µM (inactive)
[39]
  GI50: > 100 µM (inactive)
[40]
  GI50: > 100 µM (inactive)
[41]
  GI50: > 100 µM (inactive)
[43]
  GI50: > 100 µM (inactive)
[44]
  GI50: > 100 µM (inactive)
[45]
  GI50: > 100 µM (inactive)
[46]
  GI50: > 100 µM (inactive)
[47]
  GI50: > 100 µM (inactive)
[48]
  GI50: > 100 µM (inactive)
[49]
  GI50: > 100 µM (inactive)
[50]
  GI50: > 100 µM (inactive)
[51]
  GI50: > 100 µM (inactive)
[52]
  GI50: > 100 µM (inactive)
[53]
  GI50: > 100 µM (inactive)
[54]
  GI50: > 100 µM (inactive)
[55]
  GI50: > 100 µM (inactive)
[56]
  GI50: > 100 µM (inactive)
[57]
  GI50: > 100 µM (inactive)

Source: ChEMBL document CHEMBL1201862, “PubChem BioAssay data set” (2004)
